# Measurements taken from patent US20200276100A1, “PHOTOPROTECTIVE COMPOSITIONS CONTAINING MALASSEZIA-DERIVED COMPOUNDS AND/OR CHEMICAL ANALOGS THEREOF” (priority 2018, published 2020).
# Where two headings read alike, the source gives them in different places.
# Legend:
# [1] = system: COL1A1 (Collagen, type 1, alpha 1); assay: Differential gene fold expression analysis of skin biopsies; format: in vivo, human; details: RNA, biopsy of treated vs untreated skin after 6 weeks of application; participant; parentheses = not statistically significant; negative = decrease
# Excerpt: (§1) Differential gene fold expression analysis was used to analyze Malassezin and compound AB17151. Biopsies from human subjects were taken after 6 weeks of application of compounds. Two participants applied AB17151 and one participant applied Malassezin. Biopsies were taken of treated skin and, as a control and for comparison, from untreated skin.
# (§2) In the Table, numbers in parentheses indicate changes that are not statistically significant. All numbers indicate fold change in expression. Negative values indicate decreases in activity. A minus-3-fold change in activity, for example, means that the value changed by minus-3-fold, meaning it changed to ⅓ of its original value.
# [2] = system: COL1A2 (Collagen, type 1, alpha 2); assay: as above; format: in vivo, human; details: RNA, biopsy of treated vs untreated skin after 6 weeks of application, parentheses = not statistically significant, negative = decrease
# Excerpt: as §1, §2
# [3] = system: COL3A1 (Collagen, type III, alpha 1); assay: as above; format: in vivo, human; details: RNA, biopsy of treated vs untreated skin after 6 weeks of application, parentheses = not statistically significant, negative = decrease
# Excerpt: as §1, §2
# [4] = system: COL5A1 (Collagen, type V, alpha 1); assay: as above; format: in vivo, human; details: RNA, biopsy of treated vs untreated skin after 6 weeks of application; participant; parentheses = not statistically significant; negative = decrease
# Excerpt: as §1, §2
# [5] = system: COL5A2 (Collagen, type V, alpha 2); assay: as above; format: in vivo, human; details: RNA, biopsy of treated vs untreated skin after 6 weeks of application; participant; parentheses = not statistically significant; negative = decrease
# Excerpt: as §1, §2
# [6] = system: MMP7 (Matrix Metalloproteinase 7); assay: as above; format: in vivo, human; details: RNA, biopsy of treated vs untreated skin after 6 weeks of application; participant one; parentheses = not statistically significant; negative = decrease
# Excerpt: as §1, §2
# [7] = system: PCOLCE2 (Pro-Collagen C endopeptidase enhancer 2); assay: as above; format: in vivo, human; details: RNA, biopsy of treated vs untreated skin after 6 weeks of application, parentheses = not statistically significant, negative = decrease
# Excerpt: as §1, §2
# subject's skin = assay: In vivo photoprotection, clinical erythema evaluation after UVB irradiation; set-up: species or system human; details: Malassezin 1% formulation, one Skin Type IV subject
# Excerpt: The Malassezin 1% formulation used in this study contained the following ingredients: Water (aqua)—65.939%; Dimethyl isosorbide—20.000%; Olive Oil Glycereth-8 Esters—3.000%; Glycerin—2.991%; Coconut Alkanes—2.700%; Hydroxyethyl Acrylate/Sodium Acryloyldimethyl Taurate Copolymer—1.700%; Malassezin—1.000%; Pentylene Glycol—1.000%; Phenoxyethanol—0.640%; Coco-Caprylate/Caprate—0.300%; Caprylyl Glycol—0.200%; Chlorphenesin—0.160%; Sorbitan Isostearate—0.140%; Tocopherol—0.100%; Polysorbate 60-0.080%; and Disodium EDTA—0.050%.
# A Skin Type IV […] was included in this Proof of Concept study.
# A template of 6 squares was placed on the lower left back (1.5 cm×1.5 cm) of the test subject.
# Twenty-four hours after irradiation, the subject returned for MED assessment.
# A second right lower square was treated twice daily from day 4 to day 7, and a third medial square for one application on day 7. The product vehicle was applied for 7 days twice daily on the left back. The subject returned to the research center for irradiation on day 7. Each test site was irradiated with 120 mJ of UVB exposure. The subject returned in 24 hours for assessment of phototoxicity/photoprotection.
# The subject continued the experiment, receiving Malassezin 1% for a total of 14 days. […]
# fine lines and wrinkles = assay: Fine lines and wrinkles, dermatologist evaluation (Lemperle classification); format: in vivo, human; details: 11 subjects, 0.1%, 0.5% and 1.0% formulations pooled
# Procedure: Malassezin formulations were evaluated for their effect on fine lines and wrinkles. In this study, human subjects with skin containing areas of hyperpigmentation were randomized to one of 3 groups. […] One mL of product (formulations detailed below) was applied to the face of subjects twice daily. Five minutes after the morning application, an SPF 50 sunscreen was applied to protect the treated areas from sun. Each subject had assessments at Baseline, 2, 4, 8, 14, 18 and 22 weeks. Treatment was ceased at 14 weeks. Week 18 and week 22 observations were to determine any return towards baseline.
# Eleven subjects using the test ingredient completed week 14. […] An M.D. dermatologist with experience in evaluating fine lines and wrinkles performed evaluations on the subjects in this study and obtained the measurements tabulated below. Wrinkle assessment, classification, and evaluation were performed as described in G. Lemperle et al., A classification of facial wrinkles, Plast. Reconstr. Surg. 108: 1735 (2001), incorporated by reference herein in its entirety. For each subject, the percentage Malassezin formulation is indicated.
# [8] = system: lines and wrinkles, skin texture, tone and firmness; assay: Subject self-assessment questionnaire; format: in vivo, human; details: percentage of 11 subjects with a score of 6 or 5, formulations pooled
# Procedure: Malassezin formulations were evaluated for their effect on fine lines and wrinkles. In this study, human subjects with skin containing areas of hyperpigmentation were randomized to one of 3 groups. Product use groups included Malassezin 0.05%, 0.1%, and 1.0%. One mL of product (formulations detailed below) was applied to the face of subjects twice daily. Five minutes after the morning application, an SPF 50 sunscreen was applied to protect the treated areas from sun. Each subject had assessments at Baseline, 2, 4, 8, 14, 18 and 22 weeks. Treatment was ceased at 14 weeks. Week 18 and week 22 observations were to determine any return towards baseline.
# A subject self-assessment was completed at every visit. A total number of eleven (11) subjects were asked to respond to the questions regarding the improvement (if any) in their lines and wrinkles and related skin texture, tone, and firmness. Each answer was ranked from 6 to 1, with each having the meaning: 6—Strongly agree, 5—Agree, 4—Agree somewhat, 3—Disagree somewhat, 2—Disagree, and 1—Strongly disagree. The percentage of subjects answering with a score of 6 or 5 was calculated and is presented in the data below.
# Adverse events recording = format: in vivo, human; details: all visits; Malassezin 0.1%, 0.5%, 1.0% formulations twice daily to the face
# Procedure: Evaluation: Colorimetry measurements using the Mexameter MX 18 were used at Baseline, and Weeks 2, 4, 8, 14, 18, and 22. Clinical assessments of depigmentation was performed in the treated area. Assessments were performed at Baseline, and Weeks 2, 4, 8, 14, 18, and 22. Brightening assessments included brightening of normal skin and/or severity of dyschromia, if present (see scale). Global improvement was measured at the same time intervals. At all visits any adverse events (AE) was to be recorded including itching, burning, erythema, edema, dryness, scaling or skin peeling (see rating scales). […] Positive percentages indicate increased pigmentation, which indicates darkening. “Conc.” indicates the concentration of Malassezin in the formulation administered to the subject.
# [9] = cited from earlier work; for sun protection factor (SPF): 290-400 nm
# skin of healthy subjects = details: cited from earlier work
smiles,measurement,setting,value
COC(=O)c1c(C(c2c[nH]c3ccccc23)C2CC2)[nH]c2ccccc12 (centres unmarked) [AB17151],COL1A1 fold change in expression,[1],5.61 fold change
same,COL1A2 fold change in expression,[2]; participant one,1.99 fold change
same,COL1A2 fold change in expression,[2]; participant,6.97 fold change
same,COL3A1 fold change in expression,[3]; participant one,2.59 fold change
same,COL3A1 fold change in expression,[3]; participant,6.26 fold change
same,COL5A1 fold change in expression,[4],6.1 fold change
same,COL5A2 fold change in expression,[5],2.23 fold change
same,MMP7 fold change in expression,[6],1.79 fold change
same,PCOLCE2 fold change in expression,[7]; participant one,1.57 fold change
same,PCOLCE2 fold change in expression,[7]; participant,1.5 fold change
O=Cc1c(Cc2c[nH]c3ccccc23)[nH]c2ccccc12 [Malassezin],"UV-protective properties, conclusion of the Proof of Concept study",subject's skin,UV-protective properties
same,COL3A1 fold change in expression,[3]; participant two,1.7 fold change
same,"Fine lines/wrinkles score, Average",fine lines and wrinkles; Week 0 (baseline),2.55
same,"Fine lines/wrinkles score, Average","fine lines and wrinkles; Week 2, P-value 0.024 (Student's T test)",1.82
same,"Fine lines/wrinkles score, Average","fine lines and wrinkles; Week 4, P-value 0.011 (Student's T test)",1.73
same,"Fine lines/wrinkles score, Average","fine lines and wrinkles; Week 8, P-value 0.011 (Student's T test)",1.73
same,"Fine lines/wrinkles score, Average","fine lines and wrinkles; Week 14, P-value 0.011 (Student's T test)",1.73
same,Self-assessment: I have smoother skin texture,[8]; Week 2,45.45%
same,Self-assessment: My Lines and wrinkles are less visible,[8]; Week 2,36.36%
same,Self-assessment: My skin firmness has improved,[8]; Week 2,36.36%
same,Self-assessment: My skin has a brighter tone,[8]; Week 2,45.45%
same,Self-assessment: My skin looks more youthful and healthy,[8]; Week 2,45.45%
same,Self-assessment: My skin texture is less coarse,[8]; Week 2,54.55%
same,Self-assessment: Overall skin texture is improved,[8]; Week 2,54.55%
same,Self-assessment: Overall skin tone is improved,[8]; Week 2,54.55%
same,Self-assessment: I have smoother skin texture,[8]; Week 4,63.64%
same,Self-assessment: My Lines and wrinkles are less visible,[8]; Week 4,54.55%
same,Self-assessment: My skin firmness has improved,[8]; Week 4,63.64%
same,Self-assessment: My skin has a brighter tone,[8]; Week 4,63.64%
same,Self-assessment: My skin looks more youthful and healthy,[8]; Week 4,63.64%
same,Self-assessment: My skin texture is less coarse,[8]; Week 4,63.64%
same,Self-assessment: Overall skin texture is improved,[8]; Week 4,63.64%
same,Self-assessment: Overall skin tone is improved,[8]; Week 4,63.64%
same,Self-assessment: I have smoother skin texture,[8]; Week 8,81.82%
same,Self-assessment: My Lines and wrinkles are less visible,[8]; Week 8,63.64%
same,Self-assessment: My skin firmness has improved,[8]; Week 8,63.64%
same,Self-assessment: My skin has a brighter tone,[8]; Week 8,72.73%
same,Self-assessment: My skin looks more youthful and healthy,[8]; Week 8,81.82%
same,Self-assessment: My skin texture is less coarse,[8]; Week 8,72.73%
same,Self-assessment: Overall skin texture is improved,[8]; Week 8,81.82%
same,Self-assessment: Overall skin tone is improved,[8]; Week 8,72.73%
same,Self-assessment: I have smoother skin texture,[8]; Week 14,90.91%
same,Self-assessment: My Lines and wrinkles are less visible,[8]; Week 14,90.91%
same,Self-assessment: My skin firmness has improved,[8]; Week 14,72.73%
same,Self-assessment: My skin has a brighter tone,[8]; Week 14,81.82%
same,Self-assessment: My skin looks more youthful and healthy,[8]; Week 14,72.73%
same,Self-assessment: My skin texture is less coarse,[8]; Week 14,100.00%
same,Self-assessment: Overall skin texture is improved,[8]; Week 14,90.91%
same,Self-assessment: Overall skin tone is improved,[8]; Week 14,81.82%
same,"adverse events (itching, burning, erythema, edema, dryness, scaling or skin peeling)",Adverse events recording,No AEs were recorded
"O=C(c1c[nH]c2ccccc12)c1nccc2c1[nH]c1ccccc12 [pityriacitrin, Pityriacitrin]",sun protection factor (SPF),[9]; pityriacitrin concentration 1.25% in cream,1.4
same,sun protection factor (SPF),[9]; pityriacitrin concentration 2.5% in cream,1.5
same,sun protection factor (SPF),[9]; pityriacitrin concentration 5% in cream,1.7
same,UVB and UVA transmission,[9]; pityriacitrin cream formulations,decreased with increasing pityriacitrin concentrations
same,"UV protective effect, overall",skin of healthy subjects; in vitro and in vivo test methods,very weak
same,in vivo confirmation of the SPF determined in vitro,skin of healthy subjects; pityriacitrin 5% cream,confirmed the validity of the SPF
